PubChem BioAssay AID248 (DTP/NCI, 2004)
“And” between values parts separate entries of the source, which are not always exact repeats. Identical values can stand only once. Inconclusive results and toxic doses are left out. No stated cut-off is given here; in the data, active means T/C of 150% or more; inactive means T/C below 125%.

Tested on: L1210 leukemia ip in BDF1 mice, survival T/C
Assay: NCI In Vivo Anticancer Drug Screen. Data for tumor model L1210 Leukemia (intraperitoneal) in B6D2F1 (BDF1) mice
Conditions: endpoint: mean survival time, higher = longer survival
In short: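 Value reflects the ratio of survival in compound-treated mice to survival in vehicle-treated controls, with both groups carrying the same transplanted tumor.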

[1] = dose: 100.0 mg/kg/injection, schedule: Q04DX003 (ip), vehicle: saline
[2] = dose: 200.0 mg/kg/injection, schedule: Q04DX003 (ip), vehicle: saline
[3] = dose: 400.0 mg/kg/injection, schedule: Q04DX003 (ip), vehicle: saline
[4] = dose: 100.0 mg/kg/injection, schedule: Q04DX003 (ip), vehicle: saline with Tween-80
[5] = dose: 200.0 mg/kg/injection, schedule: Q04DX003 (ip), vehicle: saline with Tween-80
[6] = dose: 100.0 mg/kg/injection, schedule: Q04DX003 (ip), vehicle: Klucel (hydroxypropylcellulose) (HPC)
[7] = dose: 200.0 mg/kg/injection, schedule: Q04DX003 (ip), vehicle: Klucel (hydroxypropylcellulose) (HPC)
[8] = dose: 50.0 mg/kg/injection, schedule: Q04DX002 (ip), vehicle: Klucel (hydroxypropylcellulose) (HPC)
[9] = dose: 100.0 mg/kg/injection, schedule: Q01DX001 (ip), vehicle: saline
[10] = dose: 200.0 mg/kg/injection, schedule: Q01DX001 (ip), vehicle: saline
[11] = dose: 100.0 mg/kg/injection, schedule: Q01DX001 (ip), vehicle: carboxymethylcellulose (CMC)
[12] = dose: 200.0 mg/kg/injection, schedule: Q01DX001 (ip), vehicle: carboxymethylcellulose (CMC)
[13] = dose: 400.0 mg/kg/injection, schedule: Q01DX001 (ip), vehicle: carboxymethylcellulose (CMC)
[14] = dose: 100.0 mg/kg/injection, schedule: Q01DX009 (ip), vehicle: other
[15] = dose: 100.0 mg/kg/injection, schedule: Q01DX009 (ip), vehicle: Klucel (hydroxypropylcellulose) (HPC)
[16] = dose: 200.0 mg/kg/injection, schedule: Q01DX009 (ip), vehicle: Klucel (hydroxypropylcellulose) (HPC)
[17] = dose: 400.0 mg/kg/injection, schedule: Q01DX009 (ip), vehicle: Klucel (hydroxypropylcellulose) (HPC)

Measured: T/C

CC(=O)N(CCC#N)CCC#N
inactive: [1] 95 % of control | [2] 96 % of control | [3] 93 % of control

CCC(C)(CC)c1ccc(O)c(C)c1
inactive: dose: 100.0 mg/kg/injection, schedule: Q01DX009 (sc), vehicle: olive oil, sesame oil, peanut oil 104 % of control | dose: 100.0 mg/kg/injection, schedule: Q04DX003 (sc), vehicle: olive oil, sesame oil, peanut oil 104 % of control | dose: 200.0 mg/kg/injection, schedule: Q01DX009 (sc), vehicle: olive oil, sesame oil, peanut oil 112 % of control | dose: 200.0 mg/kg/injection, schedule: Q04DX003 (sc), vehicle: olive oil, sesame oil, peanut oil 106 % of control | dose: 400.0 mg/kg/injection, schedule: Q01DX009 (sc), vehicle: olive oil, sesame oil, peanut oil 101 % of control | dose: 400.0 mg/kg/injection, schedule: Q04DX003 (sc), vehicle: olive oil, sesame oil, peanut oil 108 % of control

CCOC(CN=CC1CCC=CO1)OCC (centres undefined)
inactive: [4] 91 % of control | [5] 96 % of control | dose: 400.0 mg/kg/injection, schedule: Q04DX003 (ip), vehicle: saline with Tween-80 95 % of control

CC(=O)CC(=O)Nc1ccccn1
inactive: [6] 97 % of control | [7] 101 % of control | dose: 400.0 mg/kg/injection, schedule: Q04DX003 (ip), vehicle: Klucel (hydroxypropylcellulose) (HPC) 98 % of control

O=C(c1ccccc1)c1c[nH]c2c(O)ccc(O)c12
inactive: dose: 12.5 mg/kg/injection, schedule: Q04DX002 (ip), vehicle: Klucel (hydroxypropylcellulose) (HPC) 91 % of control | dose: 25.0 mg/kg/injection, schedule: Q04DX002 (ip), vehicle: Klucel (hydroxypropylcellulose) (HPC) 95 % of control | [8] 95 % of control

Clc1ccc2c(c1)C1c3ccccc3C2C2c3ccccc3C1c1ccccc12 (centres undefined)
inactive: [8] 117 % of control | dose: 100.0 mg/kg/injection, schedule: Q04DX002 (ip), vehicle: Klucel (hydroxypropylcellulose) (HPC) 102 % of control | dose: 200.0 mg/kg/injection, schedule: Q04DX002 (ip), vehicle: Klucel (hydroxypropylcellulose) (HPC) 95 % of control and 88 % of control | dose: 400.0 mg/kg/injection, schedule: Q04DX002 (ip), vehicle: Klucel (hydroxypropylcellulose) (HPC) 88 % of control

CCCCCC[Si](Cl)(CCCCCC)CCCCCC
inactive: [9] 87 % of control | [10] 98 % of control

C(#CP(c1ccccc1)c1ccccc1)P(c1ccccc1)c1ccccc1
inactive: dose: 50.0 mg/kg/injection, schedule: Q04DX003 (ip), vehicle: Klucel (hydroxypropylcellulose) (HPC) 98 % of control | [6] 101 % of control | [7] 102 % of control

CNc1nc(N)c(N=O)c(Nc2ccc(Br)cc2)n1
inactive: [11] 102 % of control | [12] 104 % of control | [13] 102 % of control

NCCCCC(=O)NC(CCCCNC(=O)OCc1ccccc1)C(=O)O (centres undefined)
inactive: [9] 102 % of control | [10] 107 % of control | dose: 400.0 mg/kg/injection, schedule: Q01DX001 (ip), vehicle: saline 105 % of control

O=[N+]([O-])c1ccc2ncccc2c1
inactive: [6] 106 % of control | [7] 101 % of control

CCCCOC(=O)c1ccc(NC(=O)Nc2ccc([N+](=O)[O-])cc2OC)cc1
inactive: [14] 98 % of control | dose: 200.0 mg/kg/injection, schedule: Q01DX009 (ip), vehicle: other 104 % of control | dose: 400.0 mg/kg/injection, schedule: Q01DX009 (ip), vehicle: other 87 % of control

CCN(CCCCOC(=O)c1ccc(OC)c(OC)c1)C(C)Cc1ccc(OC)cc1 (centres undefined)
inactive: dose: 9.37 mg/kg/injection, schedule: Q01DX009 (ip), vehicle: saline 95 % of control | dose: 18.75 mg/kg/injection, schedule: Q01DX009 (ip), vehicle: saline 87 % of control | dose: 18.75 mg/kg/injection, schedule: Q04DX003 (ip), vehicle: saline 114 % of control | dose: 37.5 mg/kg/injection, schedule: Q01DX009 (ip), vehicle: saline 101 % of control | dose: 37.5 mg/kg/injection, schedule: Q04DX003 (ip), vehicle: saline 100 % of control | dose: 75.0 mg/kg/injection, schedule: Q01DX009 (ip), vehicle: saline 108 % of control | dose: 75.0 mg/kg/injection, schedule: Q04DX003 (ip), vehicle: saline 100 % of control | dose: 150.0 mg/kg/injection, schedule: Q04DX003 (ip), vehicle: saline 105 % of control

CCCC1(CC(C)CC)C(=O)NC(=O)NC1=O (centres undefined)
inactive: dose: 75.0 mg/kg/injection, schedule: Q01DX001 (ip), vehicle: saline 100 % of control | dose: 150.0 mg/kg/injection, schedule: Q01DX001 (ip), vehicle: saline 96 % of control | dose: 300.0 mg/kg/injection, schedule: Q01DX001 (ip), vehicle: saline 98 % of control

O=[N+]([O-])c1ccc(C(F)(F)F)cc1
inactive: dose: 50.0 mg/kg/injection, schedule: Q01DX009 (ip), vehicle: other 104 % of control | [14] 101 % of control

CCCCCCCCN(C)N=Nc1ccc(C(=O)O)cc1
inactive: dose: 25.0 mg/kg/injection, schedule: Q04DX003 (ip), vehicle: other 93 % of control | dose: 50.0 mg/kg/injection, schedule: Q04DX003 (ip), vehicle: other 90 % of control | [15] 102 % of control | dose: 100.0 mg/kg/injection, schedule: Q04DX003 (ip), vehicle: other 92 % of control | [16] 102 % of control | dose: 200.0 mg/kg/injection, schedule: Q04DX003 (ip), vehicle: other 90 % of control | dose: 300.0 mg/kg/injection, schedule: Q01DX009 (ip), vehicle: Klucel (hydroxypropylcellulose) (HPC) 98 % of control | [17] 122 % of control and 90 % of control | dose: 400.0 mg/kg/injection, schedule: Q04DX003 (ip), vehicle: other 95 % of control | dose: 600.0 mg/kg/injection, schedule: Q01DX009 (ip), vehicle: Klucel (hydroxypropylcellulose) (HPC) 98 % of control

COc1cc(OC)c2cc1Cc1cc(c(OC)cc1OC)Cc1cc(c(OC)cc1OC)Cc1cc(c(OC)cc1OC)C2
inactive: dose: 100.0 mg/kg/injection, schedule: Q01DX009 (ip), vehicle: saline 94 % of control | dose: 200.0 mg/kg/injection, schedule: Q01DX009 (ip), vehicle: saline 86 % of control | dose: 400.0 mg/kg/injection, schedule: Q01DX009 (ip), vehicle: saline 86 % of control

CNC/C(C)=C/Br
inactive: dose: 100.0 mg/kg/injection, schedule: Q04DX003 (ip), vehicle: acetone 101 % of control | [4] 103 % of control | dose: 200.0 mg/kg/injection, schedule: Q04DX003 (ip), vehicle: acetone 92 % of control | [5] 97 % of control

Nc1ncnc(N)c1NC(=O)c1cccnc1
inactive: [1] 92 % of control | [2] 96 % of control | [3] 100 % of control

C=Cc1cc[n+](CCCCC[n+]2ccc(C=C)cc2)cc1
inactive: [11] 96 % of control | [12] 98 % of control | [13] 93 % of control

CCOc1ccc(NS(=O)(=O)c2ccc(Cl)cc2)cc1
inactive: [15] 102 % of control | [16] 112 % of control | [17] 116 % of control

O=S1(=O)CC=CC1
inactive: [1] 103 % of control | [2] 97 % of control | [3] 97 % of control

O=c1ccc2c([N+](=O)[O-])cc([N+](=O)[O-])c(O)c2[nH]1
inactive: [9] 101 % of control | [10] 101 % of control

O=C(CC(O)c1ccccc1)Nc1cccnc1 (centres undefined)
inactive: dose: 100.0 mg/kg/injection, schedule: Q01DX001 (ip), vehicle: other 96 % of control

CC(=O)OCC[N+](C)(C)CCCCCCCCCC[N+](C)(C)CCOC(C)=O
inactive: dose: 3.0 mg/kg/injection, schedule: Q01DX009 (ip), vehicle: saline 100 % of control | dose: 6.25 mg/kg/injection, schedule: Q01DX009 (ip), vehicle: saline 89 % of control | dose: 12.5 mg/kg/injection, schedule: Q01DX009 (ip), vehicle: Klucel (hydroxypropylcellulose) (HPC) 97 % of control

N=C(N)c1ccc(-c2cc(-c3ccc(C(=N)N)cc3)on2)cc1
inactive: dose: 6.25 mg/kg/injection, schedule: Q04DX003 (ip), vehicle: saline 100 % of control | dose: 12.5 mg/kg/injection, schedule: Q04DX003 (ip), vehicle: saline 103 % of control | dose: 25.0 mg/kg/injection, schedule: Q04DX003 (ip), vehicle: saline 108 % of control
